Values after ≈ are worked out from the molar mass of the structure shown.
What was measured:
Assay in all cases: MIC determination by NCCLS dilution antimicrobial susceptibility test
Assay type in all cases: cell-based
[1] = test system: staphylococcus aureus SG 511; details: SG511
Text: (§1) The antibacterial effects of HKI10311129 can be determined by applying methods well-known to the experts, such as the agar plate diffusion test and the determination of the minimal inhibitory concentration (MIC).
(§2) The antimicrobial characteristics have been tested according to the US laboratory standards—National Committee for Clinical Laboratory Standards, Methods for dilution anti-microbial susceptibility tests for bacteria that grow aerobically, Approved Standard M7-A. NCCLS, Villanova, Pa., 1991).

[2] = test system: staphylococcus aureus 134/93 (MRSA); details: multiresistant
Text: as §1, §2

[3] = test system: enterococcus faecalis 1528 (VRE); details: vanA-type vancomycin resistance
Text: as §1, §2

[4] = test system: bacillus subtilis ATCC 6633; details: ATCC6633
Text: as §1, §2

- MIC [1]: 0.8 µg/mL (≈ 0.718 µM)
- MIC [2]: 0.8 µg/mL (≈ 0.718 µM)
- MIC [3]: 0.4 µg/mL (≈ 0.359 µM)
- MIC [4]: < 0.05 µg/mL
Structure (SMILES): COC1=CC(=O)c2c(cc3c(c2O)C(=O)C2(OC4CCC(OC5CCC(O)C(C)O5)C(C)O4)C(=O)C(C(N)=O)=C(O)C(OC4CCC(OC5CCC(OC6CCC(OC7CCC(O)C(C)O7)C(C)O6)C(C)O5)C(C)O4)C2C3)C1=O (stereo not shown) [HKI10311129]
